Data taken from patent publication US8557864B2, “Agent having neurotrophic factor-like activity” (Nagoya Industrial Science Research Institute, priority 2007, dated 2013).

What was measured:
Type in all cases: in vivo
[1] = system: mice under chronic mild stress; experiment: Burying the glass-marbles test, compound given at the same time as stress; conditions: 20, 100 and 500 μg/kg intraperitoneally once per day with stress; stressed 3 week- and 1 week-administration groups
Method: (§1) Mice under established chronic mild stress (hereinafter referred to as “stress”) were used for a depression and anxiety disorder-like model animal. Stress was applied as follows. 7-week-old male ddY strain mice fed in one cage for 4 mice were used and first subjected to forced swimming for 15 minutes. Then, the mice were fed in a sloped cage for 2 days, and then rested in a normal cage for 1 day. Then, the mice were fed in a dirt cage moisturized with 200 mL of water for 1 day and then rested in a normal cage for 1 day. Then, the mice were fed in a rotational cage that rotated at 180 rpm for 1 day, and then rested in a normal cage for 1 day. […] For 0 μg/kg administration examples of controls, a phosphoric acid buffer containing 0.1% DMSO (controls were expressed as “PBS” or “0 μg/kg” in the figure shown below) was administered in an amount of 0.25 mL to each of a stressed example and a non-stressed example. […]
Tips were bedded so as to have a height of 5 cm in a box with […] and 25 glass marbles (1.6 cm in diameter) were placed thereon at 5 cm-interval and behaviors of mice were observed. […] Since a mouse under stress having an anxiety symptom (condition) takes such a behavior as burying glass marbles, a level of the anxiety symptom can be evaluated from the number of buried glass marbles.

[2] = system: mice under chronic mild stress; experiment: Tail suspension test comparing compound 8 and fluvoxamine after chronic mild stress; conditions: Exp. 2 (1 week after stress); compound 8 500 μg/kg, fluvoxamine 1000 μg/kg intraperitoneally once per day
Method: 7-week-old male ddY strain mice fed in one cage for 4 mice were first subjected to forced swimming for 15 minutes in the same manner as stress in Example 2 (behavior test of mice under stress) (1) described in the paragraph [0063] in the specification. Then, stress for 1 week using 3 kinds of cages was regarded as 1 cycle, and the stress was applied for 3 cycles (3 weeks) and chronic mild stress (CMS) was applied. The compound 8 and fluvoxamine were administered to mice immediately after stress in Exp. 1, 1 week after stress in Exp. 2, and 2 weeks after stress in Exp. 3, respectively, and tail suspension tests were carried out on the respective test groups. In each test group, the compound 8 was adjusted in concentration so as to have each of the doses of […] and fluvoxamine was adjusted in concentration so as to have a dose of 1000 μg/kg, by dissolving in 0.1% DMSO, and each dose of the compound 8 and fluvoxamine were intraperitoneally injected to mice once per day from the time immediately after stress. Further, to 7-week-old male ddY strain mice fed in one cage for 4 mice without stress, the compound 8 and fluvoxamine were administered to carry out the tail suspension tests in the same manner as the stressed mice. FIG. 31 show the result. A significance test was performed in a Student's t-test (*). […] “DAEE” denotes the compound 8 and “Flu” denotes fluvoxamine.

[3] = system: mice under chronic mild stress; experiment: Elevated plus maze test, compound given at the same time as stress; conditions: 20, 100 and 500 μg/kg intraperitoneally with stress, 3 week and 1 week groups
Method: as §1
In this test, an anxiety level can be evaluated from the time for being the open arm, and a behavior amount can be evaluated from the number of times of entering the closed arm. From the evaluations, when a mouse has an anxiety symptom (condition), the time for being in the open arm […], and thus, a level of the anxiety symptom (condition) can be evaluated from the length of the time. […]

[4] = Measurement of weights of mice after completion of stress; conditions: 500 μg/kg for 1 week after completion of stress
From the text: A weight of a mouse before stress was subtracted from of the weight of the mouse immediately after completion of stress for 3 weeks without administering the compound 8 and the weight of the mouse after administering the compound 8 for 1 week after completion of stress, respectively, to obtain weight gaps (g). FIGS. 29 and 30 show the results. Although doses are described in FIG. 29, the compound 8 was not administered as described above, and mice corresponding to each of the administration groups administered with the compound 8 for 1 week after completion of stress are only shown.

Compound: CCCCCCC/C=C/C(=O)OCC [Compound 8, trans-2-decenoic acid ethyl ester]
- number of buried glass marbles, stressed vs non-stressed example [1]: no significant difference
- effect on depressive symptom (immobility time) [2]: had an effect
- time for being in open arm, stressed vs non-stressed example [3]: no significant difference
- number of times of entering closed arm (behavior amount) ([3]; vs control (PBS) and stressed vs non-stressed): no significant difference
- weight gap, stressed vs non-stressed example [4]: no significant difference
